Legend:
[1] = target: T1, Epidermal growth factor receptor [DEL746-750,C797S] (Homo sapiens, UniProt P00533, C797S/DEL746-750); assay: Biochemical Assay Against EGFR Exon 19 Deletion/C797S Protein (EGFR d19/CS)
T1 construct: gene EGFR
Experimental: (§1) In wells A1 and A24, were added 12 μL of DMSO. […] To a well in Row A were added 12 μL of each 10 mM test compound stock (100% DMSO). […] The final intermediate dilution plate contained 4×16-point compound serial dilutions in assay buffer. The DMSO concentration was 10%. The intermediate compound dilution plate was transferred to the Bravo and the “5 uL dispense into ARP.pro” protocol was run. To the black low volume assay ready plates, were added 5 μL of 40 uM Phosphosens peptide sensor/4 mM ATP working solution to each well. […] To column 24, was added 10 μL of assay buffer. The final DMSO concentration was 2.5%.

[2] = target: Epidermal growth factor receptor [L858R,C797S] (Human, UniProt P00533, C797S/L858R); assay: Biochemical Assay Against EGFR L858R/C797S Protein (EGFR LR/CS)
Experimental: as §1

T1 sequence (P00533 with tags, fused parts or gaps C797S/DEL746-750 limits assumed): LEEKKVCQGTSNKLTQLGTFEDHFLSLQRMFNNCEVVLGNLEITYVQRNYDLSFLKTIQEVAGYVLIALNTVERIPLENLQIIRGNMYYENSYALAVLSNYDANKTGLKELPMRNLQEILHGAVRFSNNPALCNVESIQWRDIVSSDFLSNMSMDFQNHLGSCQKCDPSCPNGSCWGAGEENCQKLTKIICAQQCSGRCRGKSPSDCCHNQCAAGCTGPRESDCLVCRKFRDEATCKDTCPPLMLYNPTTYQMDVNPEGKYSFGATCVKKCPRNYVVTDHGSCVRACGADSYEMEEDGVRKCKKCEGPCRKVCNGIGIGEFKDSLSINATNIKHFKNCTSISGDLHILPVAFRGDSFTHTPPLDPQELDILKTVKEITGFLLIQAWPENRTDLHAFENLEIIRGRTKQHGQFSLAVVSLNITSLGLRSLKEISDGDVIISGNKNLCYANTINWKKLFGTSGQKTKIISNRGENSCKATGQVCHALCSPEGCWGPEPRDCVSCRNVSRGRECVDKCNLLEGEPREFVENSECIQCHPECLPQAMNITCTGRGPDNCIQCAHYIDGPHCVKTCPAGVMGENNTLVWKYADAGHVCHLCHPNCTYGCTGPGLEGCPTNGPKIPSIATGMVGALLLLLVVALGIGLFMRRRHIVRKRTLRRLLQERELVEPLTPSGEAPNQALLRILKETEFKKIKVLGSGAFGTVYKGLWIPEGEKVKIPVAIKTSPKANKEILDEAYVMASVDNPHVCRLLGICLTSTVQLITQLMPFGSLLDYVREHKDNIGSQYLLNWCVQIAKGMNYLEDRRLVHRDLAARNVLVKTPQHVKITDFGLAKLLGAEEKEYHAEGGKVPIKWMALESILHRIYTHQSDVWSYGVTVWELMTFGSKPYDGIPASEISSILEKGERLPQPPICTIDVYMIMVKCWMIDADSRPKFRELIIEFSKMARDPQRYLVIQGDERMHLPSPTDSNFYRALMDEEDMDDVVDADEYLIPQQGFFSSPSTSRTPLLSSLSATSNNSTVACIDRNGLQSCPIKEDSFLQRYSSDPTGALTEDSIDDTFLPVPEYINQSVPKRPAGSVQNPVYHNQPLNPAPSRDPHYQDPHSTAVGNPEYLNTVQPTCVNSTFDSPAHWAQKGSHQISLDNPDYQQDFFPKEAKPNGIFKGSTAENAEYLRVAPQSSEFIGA
Epidermal growth factor receptor [L858R,C797S], sequence (P00533 25-1210 C797S/L858R limits assumed): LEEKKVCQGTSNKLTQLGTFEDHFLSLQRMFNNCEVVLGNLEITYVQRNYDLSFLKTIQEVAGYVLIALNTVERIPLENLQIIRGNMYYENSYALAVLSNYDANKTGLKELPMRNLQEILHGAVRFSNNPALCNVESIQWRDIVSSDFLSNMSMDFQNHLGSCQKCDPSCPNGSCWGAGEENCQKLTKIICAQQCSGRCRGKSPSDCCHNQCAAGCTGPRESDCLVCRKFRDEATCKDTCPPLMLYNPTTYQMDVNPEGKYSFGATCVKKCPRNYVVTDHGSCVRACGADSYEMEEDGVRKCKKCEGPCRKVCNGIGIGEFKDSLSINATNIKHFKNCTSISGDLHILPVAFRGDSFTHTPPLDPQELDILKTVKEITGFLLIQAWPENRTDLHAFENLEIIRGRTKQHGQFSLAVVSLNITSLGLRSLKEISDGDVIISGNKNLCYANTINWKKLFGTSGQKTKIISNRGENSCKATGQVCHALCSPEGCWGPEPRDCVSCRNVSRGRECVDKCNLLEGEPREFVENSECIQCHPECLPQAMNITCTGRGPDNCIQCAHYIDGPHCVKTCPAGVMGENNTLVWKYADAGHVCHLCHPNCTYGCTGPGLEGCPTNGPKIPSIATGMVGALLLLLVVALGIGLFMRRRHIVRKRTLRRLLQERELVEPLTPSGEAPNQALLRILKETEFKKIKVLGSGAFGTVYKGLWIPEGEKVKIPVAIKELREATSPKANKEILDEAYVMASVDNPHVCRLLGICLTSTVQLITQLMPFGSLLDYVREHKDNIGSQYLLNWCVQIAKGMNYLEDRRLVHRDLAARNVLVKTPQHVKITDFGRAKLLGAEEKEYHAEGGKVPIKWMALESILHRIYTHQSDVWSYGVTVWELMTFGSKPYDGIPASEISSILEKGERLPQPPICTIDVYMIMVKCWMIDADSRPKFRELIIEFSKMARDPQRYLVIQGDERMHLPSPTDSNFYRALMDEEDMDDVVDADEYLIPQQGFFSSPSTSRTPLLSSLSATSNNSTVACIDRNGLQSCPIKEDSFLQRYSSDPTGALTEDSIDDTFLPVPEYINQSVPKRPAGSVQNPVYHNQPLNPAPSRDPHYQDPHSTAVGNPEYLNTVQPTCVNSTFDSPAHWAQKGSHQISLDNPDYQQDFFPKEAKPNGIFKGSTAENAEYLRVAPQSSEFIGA

IC50 [1] [nM]	IC50 [2] [nM]	SMILES
0.57		Fc1ccc(-c2nn(CCC(F)F)cc2-c2ccnc3oc(-c4ccccc4)cc23)cc1 [US20250034159, Example 157]
2.41		Fc1ccc(-c2nn(CCOC(F)(F)F)cc2-c2ncnc3oc(-c4ccccc4)cc23)cc1 [US20250034159, Example 144]
0.42		O=S1(=O)CC(n2cc(-c3ncnc4oc(C5=CCN(S(=O)(=O)C6CC6)CC5)cc34)c(-c3ccc(F)cc3)n2)C1 [US20250034159, Example 177]
8.54	6.32	O=S1(=O)CCC(n2cc(-c3ncnc4oc(-c5ccccc5)cc34)c(-c3ccc(F)cc3)n2)CC1 [US20250034159, Example 83]

— BindingDB's records for patent US20250034159 (Oric Pharmaceuticals, 2025)
